Row | melting point [°C] | Structure (SMILES)
1 | 208 | CC1=C(C(=O)OC(C)(C)C)C(c2ccco2)NC(=O)N1 (centres undefined)
2 | 183 | O=Cc1ccc2c(c1)C(=O)c1c(Cl)c(Cl)c(Cl)c(Cl)c1C2=O
3 | 86 to 88 | Cc1ccc(N2CCCC2=O)cc1
4 | 180 to 184 | COc1cc(C(=O)O)c(OC)c([N+](=O)[O-])c1
5 | 116 | CC(O)(C(=O)O)c1ccccc1 (centres undefined)
6 | 104 | NS(=O)(=O)c1ccc(SCCCCO)c(F)c1
7 | 256 | Cc1cccc(C)c1NC(=O)c1cc(S(N)(=O)=O)c(Cl)cc1O
8 | 162 | NC(CS(=O)(=O)c1ccccc1)=NO
9 | 188 | C/C=C/c1nc(O)n(-c2ccccc2)n1
10 | 87 | O=c1n(CCCN2CCN(c3cccc(Cl)c3)CC2)nc2ccccn12
11 | 249 | O=C(O)c1ccnc(C(=O)O)c1
12 | 24 | CC(C)(O)Cc1ccccc1
13 | 92 | COC(=O)C1CCCc2c1[nH]c1cc(OC)ccc21 (centres undefined)
14 | 114 | C=Cc1ccccc1-c1cn[nH]c1
15 | 29 to 31 | FC(F)(F)c1cc(Cl)ccc1I
16 | 135 | CC(=O)Nc1ccccc1N
17 | 182 to 184 | Brc1ccc(C#Cc2ccc(Br)cc2)cc1
18 | 54 | CC(=O)CCc1ccc2c(c1)NC(C)CC2 (centres undefined)
19 | 72.3 | O=C(/C=C/c1ccc(Cl)cc1Cl)c1ccccc1
20 | 44 to 46 | CC(C)(C)OC(=O)C(C)(C)Sc1ccc(Cl)cc1
21 | 277 to 283 | O=C(O)c1cnc2ccccc2c1

Row | melting point [°C] | Structure (SMILES)
22 | 46 | N#Cc1cc(F)c(Cl)cc1Cl
23 | 60 to 62 | COc1ccc(Cl)cc1N=C=O
24 | 126 | O=C(O)COc1cccc(CBr)c1
25 | 39 to 41.5 | CNCc1ccc(-c2ccccc2)nc1
26 | 143 | O=C(O)c1ccno1
27 | 85 | c1ccc2sc(SN3CCOCC3)nc2c1
28 | 99 | COc1ccc(C=O)cc1[N+](=O)[O-]
29 | 144 to 146 | Nc1cc2ccccc2c(Br)n1
30 | 68.5 to 69.5 | O=C(Oc1c(F)c(F)c(F)c(F)c1F)c1cccc(-c2nccs2)c1
31 | 69 | O=S(=O)(Cl)c1c(F)c(Br)cc(F)c1Br
32 | 34 | CC(=O)c1ccc(N=C=O)cc1
33 | 50 | COc1cccc(C)c1[N+](=O)[O-]
34 | 53 to 58 | O=C(c1ccccc1)C(Br)c1ccccc1 (centres undefined)
35 | 225 | O=C1Cc2cc(C(=O)CBr)ccc2N1
36 | 66 | O=Cc1ccc(N2CCOCC2)cc1
37 | 120 | Cc1ccc(Oc2ccc(Br)cc2)nn1
38 | 60 | OC(c1ccccc1)c1ccc(C(F)(F)F)cc1 (centres undefined)
39 | 36 | COc1ccc2sc(C)nc2c1
40 | 48 | O=Cc1cccc(-c2ccncc2)c1
41 | 159 to 160 | Cc1ccc(C=C2N=C(c3ccccc3)OC2=O)o1
42 | 237 to 239 | COc1nsc(Nc2ccc(Br)cc2)n1

Row | melting point [°C] | Structure (SMILES)
43 | 84 to 87 | CC(C)(C)P(c1ccccc1-c1ccccc1)C(C)(C)C
44 | 205 to 207 | CC(=O)Nc1ccc(-c2ccc(F)cc2)cc1
45 | 123 to 124 | Cc1ccc(C(=O)C(=O)c2ccc(Cl)cc2)cc1
46 | 91 | CC(=O)C(c1ccccc1)c1ccc(C(F)(F)F)cc1[N+](=O)[O-] (centres undefined)
47 | 40 | N#CCc1ccc(C(F)(F)F)cc1[N+](=O)[O-]
48 | 208 | N=C1NC(=O)C(=NNc2cccc([N+](=O)[O-])c2)S1
49 | 44 | N#Cc1ccc(C(F)(F)F)cc1[N+](=O)[O-]
50 | 79.5 | Cc1cc(Br)cc(C)c1N=C=S
51 | 202 to 204 | O=C(O)c1cnn(-c2ccc([N+](=O)[O-])cc2)c1C(F)(F)F
52 | 58 | Cc1cc(C)c2c(c1)CC2(C)O (centres undefined)
53 | 166 to 167 | C1=C(c2ccccc2)Cc2ccccc21
54 | 226 | COc1ccccc1-c1nnc2n1NC(c1ccco1)S2 (centres undefined)
55 | 171 to 175 | Cc1cc(Br)c[nH]c1=O
56 | 191 to 192 | COc1ccc(C(N)=S)cc1[N+](=O)[O-]
57 | 234 | O=C(O)CCc1ccc2c(c1)CCC(=O)N2
58 | 114 | CN(C)C(=O)Nc1ccc(SC(F)(F)Cl)c(Cl)c1
59 | 59 | COc1ccc(N)cc1C(F)(F)F
60 | 115 | CN1CCN2c3ncccc3Cc3ccccc3C2C1 (centres undefined)
61 | 256 | c1ccc2c(c1)Oc1nc3ccccc3nc1O2
62 | 101 | ClCc1cc(Cl)cc2c1OCOC2
63 | 248 to 251 | O=C(O)COc1ccc(OCC(=O)O)cc1

More lines, now with the values behind:

Row | Structure (SMILES) | melting point [°C]
64 | COC(=O)C=C(C)OP(=O)(OC)OC | 21
65 | Cc1nnc2n1-c1sc(Br)cc1C(c1ccccc1Cl)=NC2 | 213
66 | COc1cc2c(cc1OCc1ccccc1)C(CC(C)C)N(Oc1c([N+](=O)[O-])cc([N+](=O)[O-])cc1[N+](=O)[O-])CC2 (centres undefined) | 173
67 | Cc1ccc(Cl)c([N+](=O)[O-])c1 | 7
68 | CCCCCCCCCCCCCC(=O)Cl | -1
69 | C=C1C(=O)C23C(OC(C)=O)CC4C(C)(C)CCC(OC(C)=O)C4(C=O)C2C(OC(C)=O)CC1C3OC(C)=O (centres undefined) | 212
70 | O=[N+]([O-])C(Br)(Br)Br | 10
71 | Oc1c(Cl)c(O)c(Cl)c(O)c1Cl | 136
72 | CCOC(=O)C(=C(C)OC(=O)c1ccccc1)c1cc(C(C(=O)OCC)=C(C)OC(=O)c2ccccc2)c([N+](=O)[O-])cc1[N+](=O)[O-] | 167
73 | COc1ccc(-c2ccc(S(=O)(=O)NCCC(=O)O)cc2)cc1 | 190
74 | O=C(O)[C@H]1NCC[C@@H]1O | 235
75 | COCc1nnc(S)s1 | 77 to 79
76 | CC(=O)SCC(C)C(=O)N1CCCC1C(=O)O (centres undefined) | 76 to 82
77 | CN(C)c1ccc(CCC2CCc3ccccc3N2N=O)cc1 (centres undefined) | 91
78 | CC(C)(CO)C(=O)O | 124
79 | CCCCC(CC)CO[N+](=O)[O-] (centres undefined) | 75
80 | CC12CC3(C)CC(C)(C1)CC(C(=O)O)(C2)C3 | 149 to 151
81 | c1ccc2c3c(ccc2c1)-c1cccc2cccc-3c12 | 166
82 | Cc1[nH]nc(Cl)c1[N+](=O)[O-] | 111
83 | CC1CCC2(OC1)OC1CC3C4CCC5CC(O)CCC5(C)C4CCC3(C)C1C2C (centres undefined) | 206
84 | CC(=O)OC1CC(=O)OC1=O (centres undefined) | 55

Row | Structure (SMILES) | melting point [°C]
85 | C=CCC(/C=C1\C(=O)C2(C)CCC1C2(C)C)(/C=C1\C(=O)C2(C)CCC1C2(C)C)C(=O)OCC (centres undefined) | 148
86 | CCCCCCCCCCCCCCCc1cccc(O)c1O | 59.5
87 | O=C(O)CCC(F)(F)C(F)(F)C(F)(F)C(F)(F)C(F)(F)C(F)(F)F | 62 to 64
88 | CCCCCCCCCCOC(=O)c1ccccc1C(=O)OCCCCCC | -4
89 | CC12CCCC1C1CC=C3CC(O)CCC3(C)C1CC2 (centres undefined) | 136
90 | Cc1cc(O)c([N+](=O)[O-])c(=O)[nH]1 | 293 to 296
91 | CCC(C)(Br)CBr (centres undefined) | -70
92 | CN1C2CC(=O)CC1C(O)C2 (centres undefined) | 120 to 123
93 | O=C(O)c1cc(Br)cc2c1OCC2 | 230
94 | N=C(N)NC(N)=O | 105
95 | C1CNCCNCCNCCN1 | 108 to 113
96 | C/C(=N\NC(=O)c1ccccn1)c1c(O)c2ccccc2n(-c2ccccc2)c1=O | 288 to 290
97 | C[C@]12CC[C@H]3[C@@H](CCC4=CC(=O)CC[C@@]43C)[C@@H]1CC[C@@H]2C(=O)O | 254
98 | C[C@H](Cl)C(=O)O | 4
99 | COC=C(C(=O)OC)c1ccccc1Oc1cc(Oc2ccccc2C#N)ncn1 | 116
100 | O=C(CBr)c1cc(C(=O)CBr)cc(C(=O)CBr)c1 | 111
101 | O=C1NN(c2ccccc2)C(=O)C1=C1SC=C(c2ccccc2)S1 | 288 to 290
102 | C=CCCCC(=O)O | -37
103 | CCCCCCCCCCNC(=O)C(C(F)(F)F)C(F)(F)F | 66
104 | Cn1nc(CCNC(=O)c2cc([N+](=O)[O-])cc([N+](=O)[O-])c2)c2c(N)ncnc21 | 281
105 | CCSC(SCC)=C1CCCC(=C(SCC)SCC)C1=C(C#N)C#N | 100 to 102

Row | Structure (SMILES) | melting point [°C]
106 | CSc1nc(=O)n(C)c2c1CCC2 | 145 to 146
107 | Cc1ccc(S(=O)(=O)OCC2OC(C)(C)OC2COS(=O)(=O)c2ccc(C)cc2)cc1 (centres undefined) | 92
108 | Cc1nc(N)nc(NN)n1 | 250
109 | CC12CCC3c4ccc(OC(=O)Cc5ccc(N(CCCl)CCCl)cc5)cc4CCC3C1CCC2OC(=O)Cc1ccc(N(CCCl)CCCl)cc1 (centres undefined) | 52.5
110 | CC1=NN(c2ccccc2)C(=O)C1C(=O)c1ccccc1 (centres undefined) | 90 to 92
111 | Cn1c(=O)c2c(ncn2CN2CCOCC2)n(C)c1=O | 177
112 | CCCCc1nc(CO)c(Cl)[nH]1 | 150 to 152
113 | CCOP(=S)(Oc1ccc(C#N)cc1)c1ccccc1 (centres undefined) | 83
114 | COC(=O)CCC(C)C1CCC2C3C(O)C(O)C4CCCCC4(C)C3CCC12C (centres undefined) | 120 to 121
115 | O=C(c1cccs1)c1noc(-c2ccc(Br)cc2)c1S(=O)(=O)c1ccccc1 | 130
116 | CN(C)c1nc(N(C)C)nc(N(C)C)n1 | 173
117 | Brc1cc(Br)c(Oc2c(Br)c(Br)c(Br)c(Br)c2Br)cc1Br | 200
118 | CC(C)C[C@H](NC(=O)OCC1c2ccccc2-c2ccccc21)C(=O)O | 153 to 157
119 | O=C(c1ccccc1)C1C(=O)c2ccccc2C1=O | 108 to 112
120 | C[Si](C)(C)O[Si](C)(C)O[Si](C)(C)O[Si](C)(C)O[Si](C)(C)O[Si](C)(C)C | -59
121 | FC(F)(F)C(F)(F)C(F)(F)C(F)(F)C(F)(F)C(F)(F)C(F)(F)C(F)(F)Br | < 25
122 | C1CCCCNCCC1 | -19
123 | COP(=S)(OC)Oc1cc(Cl)c(I)cc1Cl | 76
124 | N#C/C(=N/Nc1cccc2ccccc12)c1nc2ccccc2s1 | 254

— a melting point compilation (Tetko et al.)
